Results on one substance are retold here after patent US20110251213A1, “Cosmetic Use of 1-Aroyl-N-(2-oxo-3-piperidinyl)-2-Piperazine Carbomamides and Related Compounds” (Avon Products, Inc., priority 2008, published 2011).

One experiment concerns Desmoglein 1. The following applies: keratinocytes. The protocol:
Normal human keratinocytes were cultured in 96 well tissue culture treated plates in Epilife medium with growth supplements (Cascade Biologics Inc.). Cells were treated with test material or a dimethylsulfoxide vehicle control diluted in growth medium for 24 hours in a humidified 37° C. incubator with 10% CO2. After incubation, growth medium from each plate was removed and 100 μl of lysis buffer was added to each of the wells and placed in the humidified 37° C. incubator with 10% CO2 for 30 minutes. At the end of the incubation period, the cells were collected in freezer plates and placed in a −80° C. freezer, until analysis. Changes in mRNA for Desmoglein 3 (DSG3) after treatment were analysed using Panomics Quantigene multiplex assay that employs branched DNA technology.

The test system of a further experiment is procollagen 1. The following applies: human dermal fibroblasts, 5 μg/ml, 48 hours. The protocol:
Human dermal fibroblasts (Cascade Biologics) were cultured in 96-well tissue culture plates in growth medium (DMEM, 5% FBS, 1% L-Glut, and 1% antibiotics) and incubated for 24 hours at 37° C. […] Procollagen 1 levels were assayed using an ELISA kit from Takara (Procollagen Type-1 C-Peptide EIA Kit, Takara Bio Inc.) as per manufacturer's instructions.

For a further experiment, the system named is Dermatopontin. The following applies: fibroblasts, 24 hours, p<0.05. Here is the method:
Normal human dermal fibroblasts were cultured in 96 well tissue culture treated plates, containing appropriate culture medium. Cells were treated with 1-aroyl-N-(2-oxo-3-piperidinyl)-2-piperazine carboxamide test material, diluted in growth medium, for 24 hours in a humidified 37° C. incubator with 10% CO2. After incubation, growth medium from each plate was removed and 100 μl of lysis buffer was added to the wells and placed in 37° C. incubator with10% CO2 for 30 minutes. At the end of incubation, the cells were collected in freezer plates and placed in −80° C. freezer, until analysis. Changes in mRNA for Dermatopontin after treatment were analysed using Panomics Quantigene multiplex assay that employs a branched DNA technology.

Like-named read-outs stand apart in the source and are kept apart here.

As to “1-aroyl-N-(2-oxo-3-piperidinyl)-2-piperazine carboxamide”, the “increase in Desmoglein 1 expression” value is recorded as “did not show a statistically significant increase” in the experiment with Desmoglein 1 (0.00005% of the test material, 24 hours) and 95% in the experiment with Desmoglein 1 (concentration of 0.0005%, after 24 hours, average of three samples, p<0.05). Also, the “increase in collagen synthesis compared to control” value with procollagen 1 was determined as 75.4%. Further, the “stimulation in mRNA levels for Dermatopontin” value with Dermatopontin (0.00005%) amounted to 43%; with Dermatopontin (0.0005%), 62%.
